These are literature values, as cited in US20150216798A1, “NOVEL ORALLY ADMINISTERED PHARMACEUTICAL FORMULATIONS” (Sanovel Ilac Sanayi Ve Ticaret Anonim Sirketi, priority 2012, published 2015).

For this data set the following is noted: after oral administration.

On to `CN1CC(=O)N2[C@H](c3ccc4c(c3)OCO4)c3[nH]c4ccccc4c3C[C@@H]2C1=O` [Tadalafil, (6R-trans)-6-(1,3-benzodioxol-5-yl)-2,3,6,7,12,12a-hexahydro-2-methyl-pyrazine [1′,2′:1,6]pyrido[3,4-b]indol-1,4-dion], for which the duration of effect is not above 36 h and the onset of action was 15 min.
